Read-outs that look alike come from different tables or passages of the source.
Key:
[1] = tested on: rats; conditions: cited from earlier work
[2] = tested on: primary human hepatocytes (PHH); test: NRU assay (neutral red uptake, lysosomal activity) in primary human hepatocytes; format: cell-based; conditions: for EC50: Homo sapiens, Hepatocyte, mean ± SEM, n = 3, read-out: EC50 (effective concentration)
Description: (§1) Cryopreserved PHH were purchased from the Primacyt GmbH (Schwerin, Germany). Two different lots were chosen based on CYP activity. The donor was a person. The post-thaw viability was 94.6% for lot HH160531 (used in two repetitions) and 85.0% for lot HH130805. The initial cell viability was determined with the trypan blue exclusion test. The cells were thawed and purified using the Plating and Thawing Kit (Primacyt GmbH). Purified hepatocytes were resuspended in Hepatocyte Plating Medium (Primacyt GmbH) and seeded on collagen-coated 96-well plates at a density of 9 × 10^5 cell/mL and incubated at 37 °C with 5% CO2. After 6 h of incubation, the medium was removed and the cells were washed with PBS. Then Human Hepatocyte Maintenance Medium (HHMM) (Primacyt GmbH) with the studied drugs was added to hepatocytes (100 µL/well). The culture conditions were kept according to the manufacturer’s protocol.
(§2) The concentration ranges of the drugs were chosen according to their solubility and their plasma level. Each drug was dissolved in DMSO. The final concentration of DMSO was 0.1% or 0.2% in the medium for both samples and corresponding controls. […] All drug solutions in medium were freshly prepared and protected from light. SAL was tested in seven concentrations from 0.39 to 25 µg/mL. Tiamulin was added in two concentrations (1 and 10 µg/mL) or just one concentration (1 µg/mL) to cell lines or human hepatocytes, respectively. Prednisolone was tested in one concentration—1 µg/mL independent of the type of cells. […] The cytotoxicity was assessed after 24 and 48 h of exposure of cell lines or after 12 and 24 h exposure of PHH. […]
The assay, based on staining of living cells by neutral red (NR), was performed according to the protocol described by Borenfreund and Puerner. […] After 10 min of shaking, the absorbance of the dissolved NR was measured at 540 nm using a blank as a reference. Cytotoxicity was expressed as a percentage of the negative control (0.1% or 0.2% DMSO).

[3] = tested on: HepG2 cells; test: MTT assay, cytotoxicity in HepG2; format: cell-based; conditions: Homo sapiens, mean ± SEM, n = 3, read-out: EC50 (effective concentration)
Description: The HepG2 cell line was purchased from the American Type Culture Collection (ATCC® HB-8065™). The cells were cultured in Minimum Essential Medium Eagle (MEME) (Sigma–Aldrich Co. (St. Louis, MO, USA)). Normal murine embryonic fibroblasts, Balb/c 3T3 clone A31 cell line (gift from Department of Swine Diseases of the National Veterinary Research Institute in Pulawy) was cultured in Dulbecco’s Modified Eagle’s Medium (DMEM) (Invitrogen Corporations (Paisley, UK)). The media were supplemented with 10% BCS (Balb/c 3T3), 10% FBS (HepG2), 1% L-glutamine, and 1% antibiotic solution. The cells were maintained in 75 cm^2 cell culture flasks in humidified incubator at 37 °C, in an atmosphere of 5% CO2. […] The initial cell viability was determined with the trypan blue exclusion test. […]
(§3) The concentration ranges of the drugs were chosen according to their solubility and their plasma level. […] The cytotoxicity was assessed after 24 and 48 h of exposure of cell lines or after 12 and 24 h exposure of PHH. […]
(§4) The metabolic activity of living cells was assessed by measuring the activity of dehydrogenases. […] The plate was shaken for 15 min at room temperature and transferred to a microplate reader to measure the absorbance at 570 nm, using a blank as a reference. Cytotoxicity was expressed as a percentage of the negative control (0.1% or 0.2% DMSO).

[4] = Cytotoxicity battery in fibroblasts; format: cell-based; conditions: mouse, Balb/c 3T3 fibroblasts, inhibiting lysosomal and mitochondrial activity and synthesis of cellular proteins, read-out: cytotoxic concentrations
Description: as §2, §4
The assay, based on staining of living cells by neutral red (NR), was performed according to the protocol described by Borenfreund and Puerner. […] After 10 min of shaking, the absorbance of the dissolved NR was measured at 540 nm using a blank as a reference. […]

[5] = tested on: humans; conditions: accidental poisoning: nausea, photophobia, limb weakness, tachycardia, muscle pain, mild rhabdomyolysis with myoglobinuria; cited from earlier work
[6] = tested on: horses; conditions: cited from earlier work
[7] = tested on: Balb/c 3T3 cells; test: TPC assay in Balb/c 3T3; format: cell-based, mouse; conditions: for EC50: Mus musculus, read-out: EC50 (effective concentration)
Description: The HepG2 cell line was purchased from the American Type Culture Collection (ATCC® HB-8065™). The cells were cultured in Minimum Essential Medium Eagle (MEME) (Sigma–Aldrich Co. (St. Louis, MO, USA)). Normal murine embryonic fibroblasts, Balb/c 3T3 clone A31 cell line (gift from Department of Swine Diseases of the National Veterinary Research Institute in Pulawy) was cultured in Dulbecco’s Modified Eagle’s Medium (DMEM) (Invitrogen Corporations (Paisley, UK)). The media were supplemented with 10% BCS (Balb/c 3T3), 10% FBS (HepG2), 1% L-glutamine, and 1% antibiotic solution. The cells were maintained in 75 cm^2 cell culture flasks in humidified incubator at 37 °C, in an atmosphere of 5% CO2. The medium was refreshed every two or three days and the cells were trypsinized by 0.25% trypsin–0.02% EDTA after reaching 70–80% confluence. The initial cell viability was determined with the trypan blue exclusion test. Single cell suspensions were prepared and adjusted to a density of 2 × 10^5 cell/mL (HepG2) and 1 × 10^5 cell/mL (Balb/c 3T3). The cell suspension was transferred to 96-well plates (100 µL/well) and incubated for 24 h before exposure to the studied drugs.
as §2, with “respectively.” for “respectively. Prednisolone was tested in one concentration—1 µg/mL independent of the type of cells.”
The assay was based on staining total cellular protein [14]. […] The absorbance was measured at 595 nm in a microplate reader using blank as a reference. Cytotoxicity was expressed as a percentage of the negative control (0.1% or 0.2% DMSO).

[8] = tested on: primary human hepatocytes (PHH); test: LDH leakage assay in primary human hepatocytes; format: cell-based; conditions: Hepatocyte, mean ± SEM, n = 3, read-out: EC50 (effective concentration)
Description: as §1, with “The culture conditions were kept according to the manufacturer’s protocol.” left out
as §3
The integrity of the plasma membrane was assessed through the test of lactate dehydrogenase (LDH) release, which was monitored using a commercially available Cytotoxicity Detection Kit (LDH) (Roche Diagnostics, Basel, Switzerland). […] The absorbance was measured at 492 nm in a microplate reader using a blank as a reference.

Q: What does the source list for `CC[C@@H](C(=O)[C@@H](C)[C@@H](O)[C@H](C)[C@@H]1O[C@@H]([C@@H](CC)C(=O)O)CC[C@@H]1C)[C@H]1O[C@]2(C=C[C@@H](O)[C@]3(CC[C@@](C)([C@H]4CC[C@](O)(CC)[C@H](C)O4)O3)O2)[C@H](C)C[C@@H]1C` [SAL, salinomycin]?
A: LD50 [1]: 50 mg/kg b.w.; EC50 ([2]; 12 h exposure): 20.4 ± 1.9 µg/mL; EC50 ([2]; 24 h exposure): 19.8 ± 1.6 µg/mL; concentration at which SAL first affected lysosomal activity ([2]; after 24 h (Figure S1)): 1.56 µg/mL; EC50 ([3]; 24 h exposure): 15.4 ± 1.7 µg/mL; EC50 ([3]; 48 h exposure): 12.9 ± 1.4 µg/mL; EC50 [4]: 0.6 to 10 µg/mL; toxicity in a human [5]: severe toxicity; LD50 [6]: 0.6 mg/kg b.w.; lowest concentration with significant effect on total protein content ([7]; Balb/c 3T3, 24 h, SAL alone or in both drug combinations (Figure S3)): 0.39 µg/mL; EC50 ([7]; BALB/c3T3, 24 h): 7.9 ± 1.1 µg/mL; EC50 ([7]; BALB/c3T3, 48 h): 1.4 ± 0.5 µg/mL; EC50 ([8]; 12 h exposure): 12.9 ± 3.2 µg/mL; EC50 ([8]; 24 h exposure): 11.3 ± 0.7 µg/mL
